From paper PMC2804746 (Biochemistry, 2008)

How the values were obtained:
ecTrxR = ecTrxR (Escherichia coli, UniProt P0A9P4); assay: anaerobic titration, reduction of bound FAD by visible spectra; format: biochemical; details: 50 mM TRIS, pH 7.5, 150 mM NaCl, 25 °C
taTrxR (Ta0984) = biological target: T1, taTrxR (Ta0984) (Thermoplasma acidophilum, UniProt Q9HJI4); assay: X-ray crystal structure, […] Å; format: binding; details: one FAD per monomer, co-purified; crystals at pH 5.5, room temperature
T1 sequence (Q9HJI4 1-319): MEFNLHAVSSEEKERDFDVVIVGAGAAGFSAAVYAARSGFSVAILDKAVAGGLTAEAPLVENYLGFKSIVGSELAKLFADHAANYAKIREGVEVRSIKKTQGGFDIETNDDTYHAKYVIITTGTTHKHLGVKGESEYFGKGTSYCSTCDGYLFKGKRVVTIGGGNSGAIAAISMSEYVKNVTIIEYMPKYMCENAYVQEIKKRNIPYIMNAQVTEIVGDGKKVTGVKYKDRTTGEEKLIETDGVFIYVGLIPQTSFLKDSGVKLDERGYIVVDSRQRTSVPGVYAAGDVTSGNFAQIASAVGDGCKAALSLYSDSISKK

ecTrxR, sequence (P0A9P4 2-321): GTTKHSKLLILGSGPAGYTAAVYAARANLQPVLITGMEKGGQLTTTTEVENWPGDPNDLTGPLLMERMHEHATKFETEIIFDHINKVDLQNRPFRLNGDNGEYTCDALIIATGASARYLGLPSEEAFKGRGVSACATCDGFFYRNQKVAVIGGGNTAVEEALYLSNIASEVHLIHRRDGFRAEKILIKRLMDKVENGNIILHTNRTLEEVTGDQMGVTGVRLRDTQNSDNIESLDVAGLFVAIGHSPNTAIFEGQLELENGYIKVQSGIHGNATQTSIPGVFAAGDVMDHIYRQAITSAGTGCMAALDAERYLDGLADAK

| SMILES | anaerobic titration, reduction of bound FAD by visible spectra (ecTrxR) | X-ray crystal structure, 2.35 Å; visible absorption spectrum (taTrxR (Ta0984)) |
| --- | --- | --- |
| NC(=O)C1=CN([C@@H]2O[C@H](COP(=O)(O)OP(=O)(O)OC[C@H]3O[C@@H](n4cnc5c(N)ncnc54)[C@H](OP(=O)(O)O)[C@@H]3O)[C@@H](O)[C@H]2O)C=CC1 [NADPH] | titration of ecTrxR with NADPH results in a rapid reduction of the bound FAD |  |
| Cc1cc2nc3c(=O)[nH]c(=O)nc-3n(C[C@H](O)[C@H](O)[C@H](O)COP(=O)(O)OP(=O)(O)OC[C@H]3O[C@@H](n4cnc5c(N)ncnc54)[C@H](O)[C@@H]3O)c2cc1C [FAD] |  | The taTrxR structure has one FAD molecule bound in a similar conformation as the ecTrxR structure |
| NC(=O)C1=CN([C@@H]2O[C@H](COP(=O)(O)OP(=O)(O)OC[C@H]3O[C@@H](n4cnc5c(N)ncnc54)[C@H](O)[C@@H]3O)[C@@H](O)[C@H]2O)C=CC1 [NADH] | NADH does reduce the flavin to some extent in this protein |  |
